The values that follow are results of earlier work, collected in US20120115828A1 (APEX LABORATORIES PRIVATE LIMITED, priority 2009, published 2012).

With `CC(=O)OCC(=O)[C@@]1(O)CC[C@H]2[C@@H]3CCC4=CC(=O)CC[C@]4(C)[C@H]3[C@@H](O)C[C@@]21C` [Hydrocortisone Acetate], the Solubility in chloroform entry is reported as “slightly soluble” and the Solubility in water result is “insoluble”. Besides, the Solubility in alcohol result (alcohol) was “slightly soluble”.

Take `Clc1ccc(COC(Cn2ccnc2)c2ccc(Cl)cc2Cl)c(Cl)c1` (centres unmarked) [Miconazole Nitrate, 1-[2-(2,4-Dichlorophenyl)-2-[(2,4-dichlorophenyl)methoxy]ethyl]-1H-imidazole]: the Solubility in chloroform entry was “slightly soluble” and the Solubility in water entry is listed as “very slightly soluble”. The “Solubility in ethanol (95%)” value (ethanol (95%)) is “slightly soluble”. For the same compound, the Solubility in ether result (ether) was “very slightly soluble”. Moreover, the Solubility in methanol entry (methanol) is reported as “freely soluble”.
